Results published in US12275729B2 (Merck Sharp & Dohme LLC, priority 2017, dated 2025).

target: IDO1 (Homo sapiens, UniProt P14902); assay: IDO1 Cellular Assay in HeLa Cells Stimulated with IFNγ; type: cell-based; details: about 48 hours, read-out: Hela IC50
Description: Biological Assays IDO1 Cellular Assay in HeLa Cells Stimulated with IFNγ
HeLa cells were cultured in complete HeLa culture medium (90% EMEM, 10% heat-inactivated fetal bovine serum) and expanded to about 1×10^9 cells. The cells were then collected and frozen down at 1×10^7 cells/vial in 1 mL frozen medium (90% complete HeLa culture medium, 10% DMSO).
Compounds to be tested were serially diluted in ten 3-fold steps in DMSO starting from 10 mM DMSO stocks in Echo low volume plate(s).
Frozen HeLa cells were thawed and transferred into HeLa assay medium (99% complete HeLa culture medium, 1% Pen/Strep) with 20 mL medium/vial of cells. The cells were spun down at 250 g in a table top centrifuge for 5 min and suspended in same volume of HeLa assay medium. The cells were then counted and adjusted to a density of 2×10^5 cells/mL in HeLa assay medium. Sterile L-tryptophan were added to the cells with final concentration of 300 uM L-tryptophan. A small aliquot (2 mL/plate) of HeLa cells were set aside and were not treated with IFNγ, to serve as the Max-E control.
HeLa cells with and without IFNγ were dispensed to the respective wells of 384-well assay plates containing the compounds. The plates were incubated for about 48 hours at a 37° C., 5% CO2 incubator. Afterwards, 12 μL of 0.5 M methyl isonipecotate in dimethyl sulfoxide were added into each well and the plates were sealed and incubated at 37° C. without CO2 overnight. The plates were centrifuged for 1 min at 200×g. The resulting fluorescence was measured in a Spectramax plate reader (Molecular Devices) with a 400 nm excitation filter and a 510 nm emission filter.
Potencies were calculated by […] least squares fit to the four parameter logistic IC50 equation.

Sequence of IDO1 (P14902 whole entry): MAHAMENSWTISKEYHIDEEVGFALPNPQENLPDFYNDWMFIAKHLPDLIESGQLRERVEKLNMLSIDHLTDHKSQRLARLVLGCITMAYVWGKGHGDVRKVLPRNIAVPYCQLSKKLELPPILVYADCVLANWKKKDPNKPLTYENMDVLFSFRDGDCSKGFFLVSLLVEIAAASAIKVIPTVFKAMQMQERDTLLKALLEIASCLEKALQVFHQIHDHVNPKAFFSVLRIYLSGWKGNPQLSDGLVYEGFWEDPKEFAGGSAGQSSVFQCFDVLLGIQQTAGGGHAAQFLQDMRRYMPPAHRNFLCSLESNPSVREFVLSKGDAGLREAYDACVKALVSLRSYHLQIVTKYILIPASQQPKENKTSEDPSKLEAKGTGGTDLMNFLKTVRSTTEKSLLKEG

| IC50 [nM] | Structure (SMILES) |
| --- | --- |
| 5 | CC(C)C(=O)N1CCCc2cc(C(C)C(=O)Nc3ccc(F)cc3)ccc21 (stereo not drawn) [Example 40, N-(4-fluorophenyl)-2-[1-(2-methylpropanoyl)-1,2,3,4-tetrahydroquinolin-6-yl]propanamide] |
| 154 | COC(C(=O)Nc1ccc(F)cn1)c1ccc2c(c1)CCCN2C(=O)C1CC1 (single isomer, unassigned) [Example 157, 2-(1-(cyclopropanecarbonyl)-1,2,3,4-tetrahydroquinolin-6-yl)-N-(5-fluoropyridin-2-yl)-2-methoxyacetamide] |
| 393 | CC(NC(=O)c1ccc(F)cc1)c1ccc2c(n1)C(O)CCN2C(=O)C1CC1 (single isomer, unassigned) [Example 198, N-(1-(5-(cyclopropanecarbonyl)-8-hydroxy-5,6,7,8-tetrahydro-1,5-naphthyridin-2-yl)ethyl)-4-fluorobenzamide] |
| 296 | C[C@H](C(=O)Nc1ccc(F)cc1)c1ccc2c(c1)CCCN2C(=O)C[C@@H](C)O [Example 68, (2S)-N-(4-fluorophenyl)-2-{1-[(3R)-3-hydroxybulanoyl]-1,2,3,4-tetrahydroquinolin-6-yl}propanamide] |
| 3.1 | C[C@H](C(=O)Nc1ccc(F)cc1)c1ccc2c(c1)CCCN2C(=O)[C@@H]1CCCCO1 (single isomer, unassigned) [Example 88] |
| 4.8 | CC(C(=O)Nc1ccc(F)cc1)c1ccc2c(c1)CCCN2C(=O)C1CCCCO1 (stereo not drawn) [Example 37, N-(4-fluorophenyl)-2-[1-(oxane-2-carbonyl)-1,2,3,4-tetrahydroquinolin-6-yl]propanamide] |
| 86.1 | O=C(c1cnn(CC(F)F)c1)N1CCCc2cc(C3(C(=O)Nc4ccc(F)cc4)CCC3)ccc21 [Example 114, 1-{1-[1-(2,2-difluoroethyl)-1H-pyrazole-4-carbonyl]-1,2,3,4-tetrahydroquinolin-6-yl}-N-(4-fluorophenyl)cyclobutane-1-carboxamide] |
| 209 | CC(C)CC(=O)N1CCCc2cc(CNC(=O)c3ccc(C(C)C)cc3)ccc21 [Example 3, N-{[1-(3-methylbutanoyl)-1,2,3,4-tetrahydroquinolin-6-yl]methyl}-4-(propan-2-yl)benzamide] |
| 3.1 | O=C(C1CCOCC1)N1CCCc2nc(C3(C(=O)Nc4ccc(F)cc4)CCC3)ccc21 [Example 181, N-(4-fluorophenyl)-1-[5-(oxane-4-carbonyl)-5,6,7,8-tetrahydro-1,5-naphthyridin-2-yl]cyclobutane-1-carboxamide] |
| 7510 | CC(NC(=O)c1ccc(F)cc1)c1ccc2c(n1)C(F)CCN2C(=O)C1CC1 (single isomer, unassigned) [Example 203, N-(1-(5-(cyclopropanecarbonyl)-8-fluoro-5,6,7,8-tetrahydro-1,5-naphthyridin-2-yl)ethyl)-4-fluorobenzamide] |
| 70.5 | CC(NC(=O)c1ccc(F)cc1)c1ccc2c(n1)CCCN2CC1CC1 (stereo not drawn) [Example 227, N-{1-[5-(cyclopropylmethyl)-5,6,7,8-tetrahydro-1,5-naphthyridin-2-yl]ethyl}-4-fluorobenzamide] |
| 276 | CC(C)CC(=O)N1CCCc2cc(CNC(=O)c3ccc(Cl)c(Cl)c3)ccc21 [Example 8, 3,4-dichloro-N-{[1-(3-methylbutanoyl)-1,2,3,4-tetrahydroquinolin-6-yl]methyl}benzamide] |
| 5.9 | Cc1nc(C(=O)N2CCCc3cc(C(C)C(=O)Nc4ccc(F)cc4)ccc32)co1 (stereo not drawn) [Example 45, N-(4-fluorophenyl)-2-[1-(2-methyl-1,3-oxazole-4-carbonyl)-1,2,3,4-tetrahydroquinolin-6-yl]propanamide] |
| 5.5 | CC(NC(=O)c1ccc(F)cc1)c1ccc2c(n1)CCCN2C(=O)OCCF (stereo not drawn) [Example 210, 2-fluoroethyl 6-{1-[(4-fluorobenzene-1-carbonyl)amino]ethyl}-3,4-dihydro-1,5-naphthyridine-1(2H)-carboxylate] |
| 40.5 | Cc1noc(C(=O)NCc2ccc3c(c2)CCCN3C(=O)c2cccc(Cl)c2)n1 [Example 21, N-{[1-(3-chlorobenzene-1-carbonyl)-1,2,3,4-tetrahydroquinolin-6-yl]methyl}-3-methyl-1,2,4-oxadiazole-5-carboxamide] |
| 5.2 | O=C(C1CCO1)N1CCCc2nc(C3(C(=O)Nc4ccc(F)cc4)CCC3)ccc21 (stereo not drawn) [Example 182, N-(4-fluorophenyl)-1-[5-(oxetane-2-carbonyl)-5,6,7,8-tetrahydro-1,5-naphthyridin-2-yl]cyclobutane-1-carboxamide] |
| 118 | O=C(NCc1ccc2c(c1)CCCN2C(=O)c1cccc(Cl)c1)c1cccc(Cl)c1 [Example 16, 3-chloro-N-((1-(3-chlorobenzoyl)-1,2,3,4-tetrahydroquinolin-6-yl)methyl)benzamide] |
| 91.1 | CC(C(=O)Nc1ccc(F)cc1)c1ccc2c(c1)CCCN2C1COC1 (stereo not drawn) [Example 231, N-(4-fluorophenyl)-2-[1-(oxetan-3-yl)-1,2,3,4-tetrahydroquinolin-6-yl]propanamide] |
| 35.5 | CC(NC(=O)c1ccc(F)cc1)c1ccc2c(n1)CCCN2C(=O)C1CCOCC1 (stereo in doubt) [Example 146, 4-fluoro-N-{(1R)-1-[5-(oxane-4-carbonyl)-5,6,7,8-tetrahydro-1,5-naphthyridin-2-yl]ethyl}benzamide] |
| 21.1 | CC(C)CC(=O)N1CCCc2cc(CNC(=O)c3ccc(I)cc3)ccc21 [Example 12, 4-iodo-N-{[1-(3-methylbutanoyl)-1,2,3,4-tetrahydroquinolin-6-yl]methyl}benzamide] |
| 794 | COC(C(=O)Nc1ccc(F)cn1)c1ccc2c(c1)CCCN2C(=O)C1CC1 (single isomer, unassigned) [Example 156, 2-(1-(cyclopropanecarbonyl)-1,2,3,4-tetrahydroquinolin-6-yl)-N-(5-fluoropyridin-2-yl)-2-methoxyacetamide] |
| 1.1 | CC(C(=O)Nc1ccc(F)cc1)c1ccc2c(n1)CCCN2C(=O)[C@@H]1CCCO1 (single isomer, unassigned) [Example 164] |
| 32.3 | C[C@H](C(=O)Nc1ccc(F)cc1)c1ccc2c(c1)CCCN2C(=O)[C@@H]1CCCO1 [Example 84, (2S)-N-(4-fluorophenyl)-2-{1-[(2S)-oxolane-2-carbonyl]-1,2,3,4-tetrahydroquinolin-6-yl]propanamide] |
| 63.6 | C[C@@H](NC(=O)c1ccc(F)cc1)c1ccc2c(n1)CCCN2C(=O)C1CC1(F)F (stereo partly drawn) [Example 133, N-{(1R)-1-[5-(2,2-difluorocyclopropane-1-carbonyl)-5,6,7,8-tetrahydro-1,5-naphthyridin-2-yl]ethyl}-4-fluorobenzamide] |
| 5.4 | CC(C(=O)Nc1ccc(F)cc1)c1ccc2c(c1)CCCN2C(=O)C1CCCO1 (stereo not drawn) [Example 39, N-(4-fluorophenyl)-2-[1-(oxolane-2-carbonyl)-1,2,3,4-tetrahydroquinolin-6-yl]propanamide] |
| 34 | O=C(Nc1ccc(F)cc1)C(c1ccc2c(n1)CCCN2C(=O)C1CC1)C1CC1 (stereo not drawn) [Example 260, 2-(5-(cyclopropanecarbonyl)-5,6,7,8-tetrahydro-1,5-naphthyridin-2-yl)-2-cyclopropyl-N-(4-fluorophenyl)acetamide] |
| 1.5 | COC(=O)N1CCCc2cc(C3(C(=O)Nc4ccc(F)cn4)CCC3)ccc21 [Example 206, methyl 6-{1-[(5-fluoropyridin-2-yl)carbamoyl]cyclobutyl}-3,4-dihydroquinoline-1(2H)-carboxylate] |
| 10.8 | CC(C)(C(=O)Nc1ccc(F)cc1)c1ccc2c(n1)CCCN2C(=O)C1CC1 [Example 184, 2-[5-(cyclopropanecarbonyl)-5,6,7,8-tetrahydro-1,5-naphthyridin-2-yl]-N-(4-fluorophenyl)-2-methylpropanamide] |
| 3.2 | CC(NC(=O)c1ccc(Cl)cc1)c1ccc2c(n1)CCCN2C(=O)c1cc(C2CC2)ccn1 (stereo not drawn) [Example 288, 4-chloro-N-(1-(5-(4-cyclopropylpicolinoyl)-5,6,7,8-tetrahydro-1,5-naphthyridin-2-yl)ethyl)benzamide] |

same assay, conditions: read-out: Hela IC50

| IC50 [nM] | Structure (SMILES) |
| --- | --- |
| 25.7 | C[C@H](NC(=O)c1ccc(F)cc1)c1ccc2c(n1)CCCN2c1cccc(F)n1 [Example 387, (S)-4-fluoro-N-(1-(5-(6-fluoropyridin-2-yl)-5,6,7,8-tetrahydro-1,5-naphthyridin-2-yl)ethyl)benzamide] |
| 25.6 | Cc1nc(N2CCCc3nc(C(C)NC(=O)c4ccc(Cl)cc4)ccc32)c2cc(F)ccc2n1 (stereo not drawn) [Example 360, 2-(1-(4-chlorobenzamido)ethyl)-5-(6-fluoro-2-methylquinazolin-4-yl)-5,6,7,8-tetrahydro-1,5-naphthyridin-1-ium 2,2,2-trifluoroacetate] |
| 4.01 | COc1cccc(N2CCCc3nc(C(C)NC(=O)c4ccc(Cl)cc4)ccc32)n1 (stereo not drawn) [Example 352, 4-chloro-N-(1-(5-(6-methoxypyridin-2-yl)-5,6,7,8-tetrahydro-1,5-naphthyridin-2-yl)ethyl)benzamide] |
| 24.3 | CC(NC(=O)c1ccc(F)cc1)c1ccc2c(n1)CCCN2C(=O)OCCc1ccc(Cl)c(Cl)c1 (stereo not drawn) [Example 326, 3,4-dichlorophenethyl 6-(1-(4-fluorobenzamido)ethyl)-3,4-dihydro-1,5-naphthyridine-1(2H)-carboxylate] |
